Results on nine molecules are retold here after patent US5565478A (The United States of America as represented by the …, priority 1994, dated 1996).

Data set [1] relates to A2780 human ovarian cancer cells. The data set can be described thus: Colony growth inhibition, 24 hr exposure. The format is cell-based. The following applies: colonies counted after 5 days. How it is done:
(§1) A2780 human ovarian cancer cells are available from the ATCC. The cells were cultured in RPMI 1640 with 10% FCS under standard conditions. See the ATCC catalog. The culture media contained penicillin and streptomycin and in some instances, insulin.
(§2) Cells (500) were plated in 6-well plates and allowed to grow overnight. […] Controls were conducted by adding DMSO vehicle in complete media. […] After 5 days of incubation, the cells were washed once with PBS and then stained with methylene blue in 40% methanol for 20 min. The wells were rinsed gently with water and allowed to air dry. Colonies were counted by hand.

Data set [2] deals with A2780-CP70 cells (cisplatin-resistant). The data set can be described thus: Colony growth inhibition, 24 hr exposure. Type of data set: cell-based. The following applies: Homo sapiens, colonies counted after 5 days. On the procedure: (§3) A2780-CP70 are a selected subline of A2780 which are stably resistant to cisplatin in the absence of continuous exposure. These cells were obtained from Robert Ozols, MD at the Fox Chase Cancer Center, Philadelphia, Pa., USA. These cells were cultured as described above.
as §2

The test system of data set [3] is A2780 cells. The data set can be described thus: Colony assay, compound 1 followed by paclitaxel. The following applies: compound 1 (0, 1 and 5 μM) 24 hr, then compound 3 (paclitaxel, 0 to 0.01 μM) 24 hr. Type of data set: cell-based, human. On the procedure:
as §1
(§4) Cells were incubated overnight in serum-containing medium, then washed once and treated with compound 1 (0, 1 and 5 μM). […] The resulting cells were washed once with PBS, treated with serum-containing media and incubated for 5 days. The cells were then fixed and stained with methylene blue in 40% methanol and the colonies were counted. FIGS. 2 and 3 show the results for the A2780 and A2780-CP70 cells, respectively. Data are presented as a percent of control (DMSO vehicle) growth.

Data set [4] deals with A2780-CP70 cells. The data set can be described thus: Colony assay, compound 1 followed by paclitaxel. The conditions noted are these: compound 1 (0, 1 and 5 μM) 24 hr, then compound 3 (paclitaxel, 0 to 0.01 μM) 24 hr. Type of data set: cell-based, human. On the procedure:
as §3, §4

Data set [5] deals with A2780-CP70 cells. The experiment in a line: Colony assay, paclitaxel followed by compound 1. The format is cell-based, human. The conditions noted are these: paclitaxel (0.003 μM) 24 hr, then compound 1 (0 to 10 μM); cisplatin-resistant A2780-CP70. How it is done:
as §3
The cells were again washed with PBS and treated with compound 1 (0 to 10 μM) for 24 hr, washed again with PBS and incubated for 5 days in drug-free media. The resulting cells were fixed, stained and the colonies were counted. Data are presented in FIGS. 4 and 5 as a percentage of control growth (DMSO treatment only).

The subject of data set [6] is A2780 cells. The experiment in a line: Monolayer assay, compound 1 followed by paclitaxel. The following applies: compound 1 (5 μM) 24 hr, then paclitaxel (0 to 0.007 μM) 24 hr. The format is cell-based, human. How it is done: as §1
(§5) For each of the cell types, 50,000 cells were plated per well in 24-well tissue culture plates. One mL of medium was added to each well and the cells were incubated overnight at 37° C. The media was carefully aspirated away and media (1 mL) containing compound 1 (5 μM) or DMSO vehicle control was added to each well. After incubating the cells for 24 hr at 37° C., the media from each well was carefully aspirated away and each well was washed twice with serum-free media. […] After the incubation, the media was aspirated away and each well was washed twice with serum-free media. Serum-containing media was then added to each well and all plates were incubated for 4 days at 37° C. At the end of 4 days, the media was aspirated off and wells were fixed and stained with crystal violet in methanol. The wells were air dried and eluted with sodium citrate and ethanol. The optical density (OD) was determined for each of the well eluates at 540 nm. The percent relative growth was calculated by dividing the mean OD of identically treated wells by the OD of the control and multiplying by 100.

Data set [7] relates to A2780-CP70 cells. The data set can be described thus: Monolayer assay, compound 1 followed by paclitaxel. Type of data set: cell-based, human. The conditions noted are these: compound 1 (5 μM) 24 hr, then paclitaxel (0 to 0.007 μM) 24 hr. On the procedure:
as §3, §5

In data set [8] the test system is MDA 231 human breast cancer cells. The experiment in a line: Monolayer assay, compound 1 followed by paclitaxel. Type of data set: cell-based. The following applies: compound 1 (5 μM) 24 hr, then paclitaxel (0 to 0.007 μM) 24 hr; MDA 231 monolayer. On the procedure:
MDA-231 hormone-resistant human breast cancer cells from ATCC were cultured in DMEM with 10% FCS and penicillin/streptomycin, under standard conditions.
as §5

Data set [9] relates to A2780 cells. The data set can be described thus: Colony assay, compound 1 in combination with carboplatin. Type of data set: cell-based, human. How it is done: as §1
(§6) Cells were incubated overnight in serum-containing medium, then washed once and treated with compound 1 (5 μM). After 24 hr, the cells were washed once with PBS and then treated with carboplatin (1 to ~200 μM) for an additional 24 hr. The resulting cells were washed once with PBS, treated with serum-containing media and incubated for 5 days. The cells were then fixed and stained with methylene blue in 40% methanol and the colonies were counted. […] Data are presented as a percent of control (DMSO vehicle) growth.

The test system of data set [10] is A2780-CP70 cells. Described as above. Type of data set: cell-based, human. On the procedure:
as §3, §6

Data set [11] can be described thus: Toxicity of compound 1 in patients.
Data set [12] can be described thus: Stability of compound 1 in PEG-400 solution. The format is physicochemical. The following applies: temperatures of up to 50° C. How it is done:
Compound 1 (NSC 609974) is available from the National Cancer Institute as a white powder. Preferably, it is dispensed as a 100 mg/mL solution in PEG-400. Compound 1 in PEG-400 solution is stable for at least 3 months at temperatures of up to 50° C. It is administered as a measured liquid dose daily for 8 days or more. It is recommended that patients take nothing by mouth for 3 hours prior to and 1 hour after taking the compound 1.

The conditions of data set [13]: 100 mg/m^2/day.
For data set [14] the following is noted: at least; fixed dose 100 mg/m^2/d, by the 8th day of administration; read-out: plasma levels in humans; cited from earlier work.
In data set [15] the test system is nonvoltage-gated and voltage-gated calcium channels. The conditions noted are these: cited from earlier work.
The conditions of data set [16]: both in vitro and in vivo; cited from earlier work.
In data set [17] the test system is production of arachidonic acid. The following applies: cited from earlier work.
The subject of data set [18] is phosphorylation events which are associated with receptor activation. The conditions noted are these: cited from earlier work.
Another data set can be described thus: clinical. The conditions noted are these: human, plasma, 100 mg/m^2.
The conditions of data set [19]: humans, 100 mg/m^2/d; cited from earlier work.
For data set [20], the system named is receptor-mediated calcium entry (RMCE) in platelets, endothelial cells and neutrophils. The conditions noted are these: cited from earlier work.
Data set [21] concerns voltage-gated L-type calcium channels in vascular smooth muscle cells. The conditions noted are these: vascular smooth muscle cells under patch clamp; cited from earlier work. On the technique in general: The patch-clamp technique gives a direct electrical read-out from membranes.
The next data set deals with microtubule. The following applies: cited from earlier work.
A further data set concerns human tumors. The conditions noted are these: clinical trials; cited from earlier work.
The conditions of data set [22]: cited from earlier work.
The test system of a further data set is calcium levels in cells. The conditions noted are these: cited from earlier work.
For data set [23] the following is noted: in vitro; cited from earlier work.
Data set [24] concerns paclitaxel-induced neutropenia. The following applies: cited from earlier work.
Setting [25] is: carboplatin first, then compound 1.
Setting [26] is: compound 1 (5 μM) 24 hr, then carboplatin (1 to ~200 μM) 24 hr.

Like-named read-outs stand apart in the source and are kept apart here.

Regarding `NC(=O)c1nnn(Cc2cc(Cl)c(C(=O)c3ccc(Cl)cc3)c(Cl)c2)c1N` [Compound 1, 5-amino-1-(4-(4-chlorobenzoyl)-3,5-dichlorobenzyl)-1,2,3-triazole-4-carboxamide], the figures for the IC50 in data set [1] and in data set [2] were 3 µM and 9.5 µM, respectively. Besides, the “combination effect on growth” value with A2780 cells [3] was “supra-additive effect”; in the data set with A2780-CP70 cells [4] it was “supra-additive effect”; in the data set with A2780-CP70 cells [5], “additive effect”; with A2780 cells [9] (setting [26]), “sub-additive effect”; with A2780-CP70 cells [10] (setting [26]), “sub-additive effect”. Further, the “combination effect on percent relative growth” value (with A2780 cells [6]; with A2780-CP70 cells [7]; in data set [8]) was “supra-additive effect” throughout. Also, the “combination effect on growth, reversed sequence” value in the data set with A2780 cells [9] (setting [25]) and in the data set on A2780-CP70 cells [10] (setting [25]) was “sub-additive effect” each time. Also, the common low-grade toxicities result in data set [11] (human, in vivo) is “nausea and emesis”. In addition, the uncommon toxicities entry in data set [11] (human, in vivo) is “mood changes (low-grade), peripheral neuropathy (mild to moderate) and neutropenia”. Also, in data set [11] (patients, 100 mg/m^2/day), the “toxicity at dosing level” value is “no significant toxicity”. Further, in data set [12], the “stability in PEG-400 solution” value is “at least 3 months”. Further, the “usual plasma levels, plateau” value in data set [13] was in the range of 3 to 4 µg/mL. Further, the concentration in [13] (read-out: usual plasma levels, plateau (molar)) is 5 to 10 µM; in data set [14], 1 to 5 µM. The “inhibition of calcium uptake” value in [15] is listed as “inhibitor of calcium uptake”. Besides, the single agent activity result in [16] was “antiproliferative, anti-invasive, and anti-metastatic properties”. The “effect on production of arachidonic acid” value in [17] is “alter production of arachidonic acid”. The “effect on phosphorylation events” value in data set [18] is “inhibits phosphorylation events”. Moreover, the concentration at 192 h in “clinical” is 1 to 5 µM. In data set [19], the “toxicity at fixed dose” value was “no significant toxicity”.

As for `COc1ccc(CCCOC(Cn2ccnc2)c2ccc(OC)cc2)cc1` (stereo not drawn) [Compound 2], the “inhibition of RMCE” value in data set [20] was “inhibits RMCE”. In addition, in data set [21], the “block of voltage-gated L-type calcium channels” value is “blocks voltage-gated L-type calcium channels”.

Take `CC(=O)O[C@H]1C(=O)[C@@]2(C)[C@H]([C@H](OC(=O)c3ccccc3)[C@]3(O)C[C@H](OC(=O)[C@H](O)[C@@H](NC(=O)c4ccccc4)c4ccccc4)C(C)=C1C3(C)C)[C@]1(OC(C)=O)CO[C@@H]1C[C@@H]2O` [Compound 3, Paclitaxel]: the “effect on microtubule polymerization” value in the data set with microtubule is “promotion of microtubule polymerization”. Further, the “efficacy in human tumors” value in the data set with human tumors was “demonstrated efficacy in several human tumors”. Besides, the “dose at which dose limiting toxicity of peripheral neuropathy has been seen” value in data set [22] (paclitaxel infusion over 3-24 hours every 21 days) was “above 300 mg/m^2”. Further, the toxicities of paclitaxel entry in data set [22] (patients) was “nausea, emesis, diarrhea, neutropenia, thrombocytopenia, anemia, hair loss, myalgia, cardiac conduction abnormalities, hypersensitivity reactions, peripheral and autonomic neuropathy, mucositis”.

As for `Clc1ccc(COC(Cn2ccnc2)c2ccc(Cl)cc2Cl)cc1` (stereo not drawn) [econazole], in the data set on calcium levels in cells, the “effect on calcium levels in cells” value is “effect calcium levels in cells”.

Take `OC(Cn1cncn1)(Cn1cncn1)c1ccc(F)cc1F` [fluconazole]: the “effect on calcium levels in cells” value in the data set on calcium levels in cells is listed as “effect calcium levels in cells”.

On to `CCC(C)n1ncn(-c2ccc(N3CCN(c4ccc(OCC5COC(Cn6cncn6)(c6ccc(Cl)cc6Cl)O5)cc4)CC3)cc2)c1=O` (stereo not drawn) [itraconazole], for which, in the data set on calcium levels in cells, the “effect on calcium levels in cells” value is “effect calcium levels in cells”.

Take `CC(=O)N1CCN(c2ccc(OCC3COC(Cn4ccnc4)(c4ccc(Cl)cc4Cl)O3)cc2)CC1` (stereo not drawn) [ketoconazole]: the “effect on activity of paclitaxel” value in [23] was “augment the activity of paclitaxel”. Also, in the data set on calcium levels in cells, the “effect on calcium levels in cells” value is listed as “effect calcium levels in cells”.

Take `Clc1ccc(COC(Cn2ccnc2)c2ccc(Cl)cc2Cl)c(Cl)c1` (stereo not drawn) [miconazole]: in the data set on calcium levels in cells, the “effect on calcium levels in cells” value is given as “effect calcium levels in cells”.

B1: G-CSF: cytokine which blunts paclitaxel-induced neutropenia; recombinant cytokine from Amgen (protein, UniProt P09919 31-207, looked up)
Granulocyte …: TPLGPASSLPQSFLLKCLEQVRKIQGDGAALQEKLVSECATYKLCHPEELVLLGHSLGIPWAPLSSCPSQALQLAGCLSQLHSGLFLYQGLLQALEGISPELGPTLDTLQLDVADFATTIWQQMEELGMAPALQPTQGAMPAFASAFQRRAGGVLVASHLQSFLEVSYRVLRHLAQP
modifications: filgrastim
notes: recombinant cytokine from Amgen
For B1, the “maintenance of paclitaxel dose” value in data set [24] (G-CSF escalation up to 30 μg/kg/d, paclitaxel alone or with compound 1) is listed as “associated with maintenance of the dose of paclitaxel”. The “effect on paclitaxel-induced neutropenia” value in data set [24] (in vivo) is “blunts paclitaxel-induced neutropenia”.
